Source: patent publication US20230071222A1, “METHOD FOR PREPARING FIBROSIS-ENCAPSULATED TUMOROID, AND USE THEREOF” (INDUSTRY-ACADEMIC COOPERATION FOUNDATION, YONSEI UNIVERSITY, priority 2020, published 2023)

System: fibrosis-encapsulated tumoroid (FET)
Test: Anticancer drug resistance test of fibrosis-encapsulated tumoroid (cell viability measurement)
Assay type: cell-based, human
Conditions: cisplatin, 100 µM; fibrosis-encapsulated tumoroid (FET) compared to the simple tumoroid (tumor only); FIG. 10B
Protocol: The present inventors performed a drug resistance test in order to evaluate whether it was possible to select drugs, which can be effective in the clinical stage, using the fibrosis-encapsulated tumoroid which is a solid cancer tissue analogue produced by the methods of Examples 1 to 4 (see FIGS. 10A and 10B). […] The drug test was conducted through cell viability measurement. The cell viability of each of the group containing the anticancer drug and the control group not containing the anticancer drug was measured after replacing the medium with maintenance medium. […] The cell viability of the solid cancer tissue analogue was measured using Promega’s CellTiter-Glo luminescent cell viability assay as another measurement method, and the death of cancer cells by the anticancer drug could be indirectly confirmed by comparison with the control group. […] The fibrosis-encapsulated tumoroid produced as described above mimicked a series of processes in which the anticancer agent passes sequentially through the blood vessel wall and fibrotic tissue and reaches cancer tissue, in the same way as in the human body. Thus, it is preferable to finally produce the eFET and conduct an anticancer drug test using the eFET, but only the FET may be selectively used in order to reduce cost or time. […]

N.N.[Cl][Pt][Cl] [cisplatin]
resistance to the anticancer drug (cell viability): statistically significant resistance
